In patent JP2022155436A, “メトホルミン塩の調製方法” (Guangzhou University, priority 2021, dated 2021):

Assay: Hygroscopicity (moisture uptake) test of metformin salts
Format: physicochemical
Settings: 25°C, 10 days; for moisture-absorption weight increase: 75% RH (saturated NaCl) and 93% RH (saturated KNO3), sampled on day 5 and day 10; for hygroscopicity compared with metformin: 75% RH and 93% RH

| SMILES | moisture-absorption weight increase | hygroscopicity compared with metformin |
| --- | --- | --- |
| CN(C)C(=N)N=C(N)N.Oc1cccc2c(O)cccc12 [メトホルミンと1,5-ジヒドロキシナフタレン, メトホルミンと1,5-ジヒドロキシナフタレン塩] | < 5% | 吸湿性が顕著に低下した |
| CN(C)C(=N)N=C(N)N.O=C(O)c1ccc2ccccc2c1O [メトホルミンと1-ヒドロキシ-2-ナフトエ酸塩] |  | 吸湿性が顕著に低下した |
| CN(C)C(=N)NC(=N)N.O=C(O)Cc1cccc2ccccc12 [メトホルミンと1-ナフタレン酢酸塩] | < 5% | 吸湿性が顕著に低下した |
| CN(C)C(=N)NC(=N)N.O=C(O)c1ccc2ccccc2c1 [メトホルミンと2-ナフトエ酸塩] | < 5% | 吸湿性が顕著に低下した |
| CN(C)C(=N)N=C(N)N.O=C(O)c1cc2ccccc2cc1O [メトホルミンと2-ヒドロキシ-3-ナフトエ酸塩form1] | < 5% | 吸湿性が顕著に低下した |
| CN(C)C(=N)NC(=N)N.O=C(O)c1cc2ccccc2cc1O [メトホルミンと2-ヒドロキシ-3-ナフトエ酸塩form2] | < 5% | 吸湿性が顕著に低下した |
